This assay concerns lymphocytic leukemia P388 cells. Description: screening of cytostatic activity using lymphocytic leukemia P388 cells. The format is cell-based. An excerpt:
The screening of cytostatic activity was made using lymphocytic leukemia P388 cells.

The text below walks through data of patent US6004934A, “Tetrapeptide derivative” (Teikoku Hormone Mfg. Co., Ltd., priority 1991, dated 1999).

In brackets after ≈: the same amount, converted by molar mass.

In the case of `CC[C@H](C)[C@@H]([C@@H](CC(=O)N1CCC[C@H]1[C@H](OC)[C@@H](C)C(=O)N[C@@H](Cc1ccccc1)c1nccs1)OC)N(C)C(=O)[C@@H](NC(=O)[C@H](C(C)C)N(C)C)C(C)C` [Dolastatin 10], the ED50 was determined as 0.7 ng/mL (≈ 0.892 nM).
